Test results reported in patent US20260256765A1, “METHOD OF TREATING DISEASE USING COMPOUND, AND USE OF COMPOUND” (TENNOR THERAPEUTICS (SUZHOU) LIMITED, priority 2023, published 2026).
In brackets after ≈: the same amount, converted by molar mass. Where two headings read alike, the source gives them in different places.

Assays:
Type in all cases: cell-based
[1] = tested on: Staphylococcus aureus (18 strains); assay: MIC against clinical DFI isolates, Staphylococcus aureus
Method: (§1) Preparation of test strains: In this example, foot specimens were collected from 49 patients with type II diabetes. Isolates were obtained from the specimens described above through homogenization, plating, and culture at 37° C., and after the removal of fungi and strains with poor growth or strains that could not be isolated and purified, a total of 69 clinical strains were obtained. Among these, 55 strains were Gram-positive bacteria and 14 strains were Gram-negative bacteria. Of the Gram-positive bacteria, 43 strains were staphylococci, including 18 Staphylococcus aureus strains, 8 Staphylococcus epidermidis strains, and 5 Staphylococcus lugdunensis strains. One ATCC standard strain was additionally used as a standard and quality control strain.
(§2) Determination of antibacterial activity: The minimum inhibitory concentration (MIC) and the minimum biofilm bactericidal concentration (MBBC) for in vitro biofilms of the compound of formula (I) and control drugs (see details in 2) against 69 clinically isolated diabetic foot infection clinical strains were evaluated using the standard broth dilution method and the in vitro biofilm culture and drug susceptibility methods reported in the literature.

[2] = tested on: Staphylococcus aureus (18 strains); assay: MBBC against biofilms of clinical DFI isolates, Staphylococcus aureus
Method: as §1
(§3) Preparation of biofilms: In a sterile environment, a single, identified, and thawed colony was picked with an inoculation loop and bacterial inoculums were adjusted to a 0.5 McFarland standard, which served as an initial bacterial inoculum. The bacterial inoculum was diluted in a 1:200 ratio by adding 50 μL of the initial bacterial inoculums to 10 mL of a CAMHB medium. 150 μL of the bacterial inoculums was transferred to a CBD plate using a pipette. The inoculated CBD plate was incubated in an incubator at 35±2° C. for 16-20 hours.
as §2

[3] = tested on: Gram-negative bacteria (14 strains); assay: MIC by standard broth dilution against clinical DFI isolates, Gram-negative bacteria
Method: as §1, §2

[4] = tested on: Staphylococci (43 strains); assay: MBBC against biofilms of clinical DFI isolates, staphylococci total
Method: as §1, §3, §2

[5] = tested on: Gram-negative bacteria (14 strains); assay: MBBC for in vitro biofilms of clinical DFI isolates, Gram-negative bacteria
Method: as §1, §3, §2

[6] = tested on: Staphylococci (43 strains); assay: MIC against clinical DFI isolates, staphylococci total
Method: as §1, §2

[7] = tested on: Gram-positive bacteria (55 strains); assay: MBBC for in vitro biofilms of clinical DFI isolates, Gram-positive bacteria
Method: as §1, §3, §2

[8] = tested on: Staphylococcus epidermidis (8 strains); assay: MIC against clinical DFI isolates, Staphylococcus epidermidis
Method: as §1, §2

[9] = tested on: Gram-positive bacteria (55 strains); assay: MIC by standard broth dilution against clinical DFI isolates, Gram-positive bacteria
Method: as §1, §2

[10] = tested on: Staphylococcus epidermidis (8 strains); assay: MBBC against biofilms of clinical DFI isolates, Staphylococcus epidermidis
Method: as §1, with “strain. […]” for “strain.”
as §2

[11] = Staphylococcus aureus (18 strains), read-out: MIC50
[12] = Staphylococcus aureus (18 strains), read-out: MIC90
[13] = biofilms, Staphylococcus aureus (18 strains), read-out: MBBC50
[14] = biofilms, Staphylococcus aureus (18 strains), read-out: MBBC90
[15] = biofilms, Staphylococci (43 strains), total, read-out: MBBC50
[16] = biofilms, Staphylococci (43 strains), total, read-out: MBBC90
[17] = Staphylococci (43 strains), total, read-out: MIC50
[18] = Staphylococci (43 strains), total, read-out: MIC90
[19] = biofilms, Gram-positive bacteria (55 strains), read-out: MBBC50
[20] = biofilms, Gram-positive bacteria (55 strains), read-out: MBBC90
[21] = Staphylococcus aureus (18 strains)
[22] = Staphylococci (43 strains), total
[23] = biofilms, Gram-positive bacteria (55 strains)
[24] = Gram-positive bacteria (55 strains), clinical DFI isolates
[25] = biofilms, Staphylococcus aureus (18 strains)
[26] = Gram-positive bacteria (55 strains), clinical DFI isolates, read-out: MIC50

Row | SMILES | MIC50 [1, 11] [µg/mL] | MIC90 [1, 12] [µg/mL] | MBC [2, 13] [µg/mL] | MBC [2, 14] [µg/mL] | MIC50 [3] [µg/mL] | MIC90 [3] [µg/mL] | MBC [4, 15] [µg/mL] | MBC [4, 16] [µg/mL] | MBC ([5]; read-out: MBBC50) [µg/mL] | MBC ([5]; read-out: MBBC90) [µg/mL] | MIC50 [6, 17] [µg/mL] | MIC90 [6, 18] [µg/mL] | MBC [7, 19] [µg/mL] | MBC [7, 20] [µg/mL] | MIC range [1, 21] | MIC range [6, 22] | MIC range [8] | MIC90 [9, 24] [µg/mL] | MIC50 [9, 26] [µg/mL] | also measured
1 | Cc1onc(-c2ccccc2)c1C(=O)N[C@@H]1C(=O)N2[C@@H]1SC(C)(C)[C@@H]2C(=O)O [Oxacillin] | 0.5 (≈ 1.25 µM) | 64 (≈ 159 µM) | 32 (≈ 79.7 µM) | > 128 | > 128 | > 128 | > 128 | > 128 | > 128 | > 128 | 2 (≈ 4.98 µM) | 128 (≈ 319 µM) | > 128 | > 128 | – | – | – | – | – | –
2 | CC(=O)NC[C@H]1CN(c2ccc(N3CCOCC3)c(F)c2)C(=O)O1 [Linezolid] | 2 (≈ 5.93 µM) | 4 (≈ 11.9 µM) | > 128 | > 128 | > 128 | > 128 | > 128 | > 128 | > 128 | > 128 | 2 (≈ 5.93 µM) | 4 (≈ 11.9 µM) | > 128 | > 128 | 2~4 μg/mL | 0.5~4 μg/mL | 2~4 μg/mL | – | – | MIC50 ([6]; staphylococci, read-out: MIC50): 2 µg/mL (≈ 5.93 µM); MIC90 ([6]; staphylococci, read-out: MIC90): 4 µg/mL (≈ 11.9 µM); MBBC50 [7, 23]: >128 µg/mL; MBBC90 [7, 23]: >128 µg/mL
3 | C/C(=C\C(=O)OCCCCCCCCC(=O)O)C[C@@H]1OC[C@H](C[C@@H]2O[C@H]2[C@@H](C)[C@H](C)O)[C@@H](O)[C@H]1O [Mupirocin] | 0.25 (≈ 0.499 µM) | > 128 | > 128 | > 128 | > 128 | > 128 | > 128 | > 128 | > 128 | > 128 | 0.25 (≈ 0.499 µM) | 32 (≈ 63.9 µM) | > 128 | > 128 | – | – | 0.25~0.5 μg/mL | 64 (≈ 128 µM) | – | –
4 | CO[C@H]1/C=C/O[C@@]2(C)Oc3c(C)c(O)c4c(O)c(c(/C=N/N5CCC(N(C)C6([C@@H]7CCN(c8c(F)cn9c(=O)c(C(=O)O)cc(C%10CC%10)c9c8C)C7)CC6)CC5)c(O)c4c3C2=O)NC(=O)/C(C)=C\C=C\[C@H](C)[C@H](O)[C@@H](C)[C@@H](O)[C@@H](C)[C@H](OC(C)=O)[C@@H]1C [Compound of formula (I)] | ≤ 0.015 | ≤ 0.015 | 0.25 | 0.5 | > 32 | > 32 | 0.06 | 0.5 | > 16 | > 32 | ≤ 0.015 | ≤ 0.015 | 0.125 | 16 | ≤0.015~0.03 μg/mL | ≤0.015~0.25 μg/mL | ≤0.015~0.03 ^ μg/mL | 0.25 | ≤ 0.015 | MIC50 ([1]; Staphylococcus aureus, read-out: MIC50): < 0.015 µg/mL; MIC90 ([1]; Staphylococcus aureus, read-out: MIC90): 0.015 µg/mL; MBBC50 ([2]; Staphylococcus aureus biofilms): 0.25 µg/mL; MBBC range [2, 25]: 0.03~0.5 μg/mL; MBBC range ([2]; in vitro biofilms of Staphylococcus aureus): 0.03 to 0.5 g/mL; MBBC range ([4]; biofilms, Staphylococci (43 strains), total): ≤0.015~1 μg/mL; MBBC range ([4]; in vitro biofilms of staphylococci): 0.015 to 1 g/mL; MBBC50 ([4]; staphylococci biofilms): 0.06 µg/mL; MBBC90 ([4]; staphylococci biofilms): 0.5 µg/mL; MBBC range [10]: ≤0.015~0.06 ^ μg/mL; MIC50 ([6]; staphylococci, read-out: MIC50): < 0.015 µg/mL; MIC90 ([6]; staphylococci, read-out: MIC90): 0.015 µg/mL; MIC50 ([9]; Gram-positive bacterial isolates, text b97): < 0.015 µg/mL
5 | CN[C@H](CC(C)C)C(=O)N[C@H]1C(=O)N[C@@H](CC(N)=O)C(=O)N[C@H]2C(=O)N[C@H]3C(=O)N[C@H](C(=O)N[C@H](C(=O)O)c4cc(O)cc(O)c4-c4cc3ccc4O)[C@H](O)c3ccc(c(Cl)c3)Oc3cc2cc(c3O[C@@H]2O[C@H](CO)[C@@H](O)[C@H](O)[C@H]2O[C@H]2C[C@](C)(N)[C@H](O)[C@H](C)O2)Oc2ccc(cc2Cl)[C@H]1O [Vancomycin] | – | – | – | – | > 128 | > 128 | – | – | > 128 | > 128 | – | – | – | – | 1~2 μg/mL | 1~4 μg/mL | 2~4 μg/mL | 2 (≈ 1.38 µM) | 2 (≈ 1.38 µM) | MIC50 ([1]; Staphylococcus aureus): 2 µg/mL (≈ 1.38 µM); MIC90 ([1]; Staphylococcus aureus): 2 µg/mL (≈ 1.38 µM); MBC ([2]; Staphylococcus aureus, read-out: MBBC50): > 128 µg/mL; MBC ([2]; Staphylococcus aureus, read-out: MBBC90): > 128 µg/mL; MBC ([4]; read-out: MBBC50): > 128 µg/mL; MBC ([4]; read-out: MBBC90): > 128 µg/mL; MIC50 [6]: 2 µg/mL (≈ 1.38 µM); MIC90 [6]: 2 µg/mL (≈ 1.38 µM); MIC50 ([6]; staphylococci): 2 µg/mL (≈ 1.38 µM); MIC90 ([6]; staphylococci): 2 µg/mL (≈ 1.38 µM); MBBC50 [7, 23]: >128 µg/mL; MBBC90 [7, 23]: >128 µg/mL; MBC ([7]; read-out: MBBC50): > 128 µg/mL; MBC ([7]; read-out: MBBC90): > 128 µg/mL
6 | CO[C@H]1/C=C/O[C@@]2(C)Oc3c(C)c(O)c4c(O)c(c(/C=N/N5CCN(C)CC5)c(O)c4c3C2=O)NC(=O)/C(C)=C\C=C\[C@H](C)[C@H](O)[C@@H](C)[C@@H](O)[C@@H](C)[C@H](OC(C)=O)[C@@H]1C [Rifampicin] | ≤ 0.015 | ≤ 0.015 | 16 (≈ 19.4 µM) | > 16 | 32 (≈ 38.9 µM) | > 32 | 4 (≈ 4.86 µM) | > 16 | > 16 | > 32 | ≤ 0.015 | ≤ 0.015 | 8 (≈ 9.72 µM) | > 16 | ≤0.015 µg/mL | – | ≤0.015 µg/mL | 0.5 (≈ 0.608 µM) | ≤ 0.015 | MBBC range [2, 25]: ≤0.03~16 ^ μg/mL; MBBC range [10]: 0.03~16 ^ μg/mL
7 | CCC[C@@H]1C[C@@H](C(=O)N[C@@H]([C@H]2O[C@H](SC)[C@H](O)[C@@H](O)[C@H]2O)[C@H](C)Cl)N(C)C1 [Clindamycin] | – | 0.25 (≈ 0.588 µM) | > 128 | > 128 | > 128 | > 128 | > 128 | > 128 | > 128 | > 128 | – | 128 (≈ 301 µM) | > 128 | > 128 | ≤0.06~0.5 μg/mL | – | – | > 128 | 0.25 (≈ 0.588 µM) | MIC50 ([1]; Staphylococcus aureus): 0.125 µg/mL (≈ 0.294 µM); MIC50 [6]: 0.125 µg/mL (≈ 0.294 µM)
